Reference: patent publication US9416125B2, “Substituted cycloalkenopyrazoles as BUB1 inhibitors for the treatment of cancer” (BAYER PHARMA AKTIENGESELLSCHAFT, priority 2012, dated 2016)

Legend:
[1] = test system: HeLa cell line; assay: Proliferation assay (crystal violet staining); type: cell-based; details: Homo sapiens, 96 h, 4 days incubation, range 0.001-10 μM, median, read-out: Biological Assay 2: Proliferation assay (HeLa cell line) median IC50
Protocol: Cultivated tumor cells (cells were ordered from ATCC, except HeLa-MaTu and HeLa-MaTu-ADR, which were ordered from EPO-GmbH, Berlin) were plated at a density of 1000 to 5000 cells/well, depending on the growth rate of the respective cell line, in a 96-well multititer plate in 200 μL of their respective growth medium supplemented 10% fetal calf serum. After 24 h, the cells of one plate (zero-point plate) were stained with crystal violet (see below), while the medium of the other plates was replaced by fresh culture medium (200 μL), to which the test substances were added in various concentrations (0 μM, as well as in the range of 0.001-10 μM; the final concentration of the solvent DMSO was 0.5%). The cells were incubated for 4 days in the presence of test substances. Cell proliferation was determined by staining the cells with crystal violet: the cells were fixed by adding 20 μL/measuring point of an 11% glutaric aldehyde solution for 15 min at rt. After three washing cycles of the fixed cells with water, the plates were dried at rt. The cells were stained by adding 100 μL/measuring point of a 0.1% crystal violet solution (pH 3.0). After three washing cycles of the stained cells with water, the plates were dried at rt. The dye was dissolved by adding 100 μL/measuring point of a 10% acetic acid solution. Absorbtion was determined by photometry at a wavelength of 595 nm. The change of cell number, in percent, was calculated by normalization of the measured values to the aborbtion values of the zero-point plate (=0%) and the absorbtion of the untreated (0 μm) cells (=100%). The IC50 values were determined by means of a 4 parameter fit.

[2] = target: T1, catalytic domain of human Bub1 (amino acids 704-1085) (Homo sapiens, UniProt O43683); assay: Bub1 kinase assay (TR-FRET); type: biochemical; details: 10 μM ATP, 1 μM peptide substrate, median, read-out: Biological Assay 1: Bub1 kinase assay median IC50
T1 construct: catalytic domain of human Bub1 (amino acids 704-1085); His6 (N); made in house; host or cells: Hi5 insect cells
T1 sequence (O43683 704-1085): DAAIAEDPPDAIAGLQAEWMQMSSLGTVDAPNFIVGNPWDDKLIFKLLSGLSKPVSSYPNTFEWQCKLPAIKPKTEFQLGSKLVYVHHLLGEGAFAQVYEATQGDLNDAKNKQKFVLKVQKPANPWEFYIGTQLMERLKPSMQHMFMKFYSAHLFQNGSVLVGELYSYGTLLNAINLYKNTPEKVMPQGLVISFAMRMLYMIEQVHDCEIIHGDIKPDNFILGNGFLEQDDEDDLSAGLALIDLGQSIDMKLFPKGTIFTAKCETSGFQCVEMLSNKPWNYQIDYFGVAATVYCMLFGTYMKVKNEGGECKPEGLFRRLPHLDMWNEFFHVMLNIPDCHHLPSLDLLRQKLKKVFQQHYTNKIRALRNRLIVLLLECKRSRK
From the text: Bub1-inhibitory activities of compounds described in the present invention were quantified using a time-resolved fluorescence energy transfer (TR-FRET) kinase assay which measures phosphorylation of the synthetic peptide Biotin-Ahx-VLLPKKSFAEPG (C-terminus in amide form), purchased from e.g. Biosyntan (Berlin, Germany) by the (recombinant) catalytic domain of human Bub1 (amino acids 704-1085), expressed in Hi5 insect cells with an N-terminal His6-tag and purified by affinity- (Ni-NTA) and size exclusion chromatography.
In a typical assay 11 different concentrations of each compound (0.1 nM, 0.33 nM, 1.1 nM, 3.8 nM, 13 nM, 44 nM, 0.15 μM, 0.51 μM, 1.7 μM, 5.9 μM and 20 μM) were tested in duplicate within the same microtiter plate. To this end, 100-fold concentrated compound solutions (in DMSO) were previously prepared by serial dilution (1:3.4) of 2 mM stocks in a clear low volume 384-well source microtiter plate (Greiner Bio-One, Frickenhausen, Germany), from which 50 nL of compounds were transferred into a black low volume test microtiter plate from the same supplier. Subsequently, 2 μL of Bub1 (the final concentration of Bub1 was adjusted depending on the activity of the enzyme lot in order to be within the linear dynamic range of the assay: typically ˜200 ng/mL were used) in aqueous assay buffer [50 mM Tris/HCl pH 7.5, 10 mM magnesium chloride (MgCl2), 200 mM potassium chloride (KCl), 1.0 mM dithiothreitol (DTT), 0.1 mM sodium ortho-vanadate, 1% (v/v) glycerol, 0.01% (w/v) bovine serum albumine (BSA), 0.005% (v/v) Trition X-100 (Sigma), 1× Complete EDTA-free protease inhibitor mixture (Roche)] were added to the compounds in the test plate and the mixture was incubated for 15 min at 22° C. to allow pre-equilibration of the putative enzyme-inhibitor complexes before the start of the kinase reaction, which was initiated by the addition of 3 μL 1.67-fold concentrated solution (in assay buffer) of adenosine-tri-phosphate (ATP, 10 μM final concentration) and peptide substrate (1 μM final concentration). The resulting mixture (5 μL final volume) was incubated at 22° C. during 60 min, and the reaction was stopped by the addition of 5 μL of an aqueous EDTA-solution (50 mM EDTA, in 100 mM HEPES pH 7.5 and 0.2% (w/v) bovine serum albumin) which also contained the TR-FRET detection reagents (0.2 μM streptavidin-XL665 [Cisbio Bioassays, Codolet, France] and 1 nM anti-phosho-Serine antibody [Merck Millipore, cat. #35-001] and 0.4 nM LANCE EU-W1024 labeled anti-mouse IgG antibody [Perkin-Elmer, product no. AD0077, alternatively a Terbium-cryptate-labeled anti-mouse IgG antibody from Cisbio Bioassays can be used]). The stopped reaction mixture was further incubated 1 h at 22° C. in order to allow the formation of complexes between peptides and detection reagents. Subsequently, the amount of product was evaluated by measurement of the resonance energy transfer from the Eu-chelate-antibody complex recognizing the Phosphoserine residue to the streptavidin-XL665 bound to the biotin moiety of the peptide. To this end, the fluorescence emissions at 620 nm and 665 nm after excitation at 330-350 nm were measured in GTR-FRET plate reader, e.g. a Rubystar or Pherastar (both from BMG Labtechnologies, Offenburg, Germany) or a Viewlux (Perkin-Elmer) and the ratio of the emissions (665 nm/622 nm) was taken as indicator for the amount of phosphorylated substrate. The data were normalised using two sets of (typically 32-) control wells for high- (=enzyme reaction without inhibitor=0%=Minimum inhibition) and low- (=all assay components without enzyme=100%=Maximum inhibition) Bub1 activity. IC50 values were calculated by fitting the normalized inhibition data to a 4-parameter logistic equation (Minimum, Maximum, IC50, Hill; Y=Max+(Min−Max)/(1+(X/IC50)Hill)).

| IC50 [1] [nM] | IC50 [2] [nM] | SMILES |
| --- | --- | --- |
| ≥ 10000 | 100 | COc1ccc(Cn2nc(-c3ncc(O)c(Nc4ccncc4)n3)c3c2CCC3)cc1 [Example 2-2-3, 2-[1-(4-methoxy-benzyl)-1,4,5,6-tetrahydrocyclopenta [c]pyrazol-3-yl]-4-(pyridin-4-ylamino) pyrimidin-5-ol] |
| 1000 | 9 | CCOc1cc(F)c(Cn2nc(-c3ncc(OCCN(C)C)c(Nc4ccncc4)n3)c3c2CCC3)c(F)c1 [Example 2-3-1, 5-[2-(dimethylamino)ethoxy]-2-[1-(4-ethoxy-2,6-difluorobenzyl)-1,4,5,6-tetrahydrocyclopenta[c]pyrazol-3-yl]-N-(pyridin-4-yl)pyrimidin-4-amine] |
| ≥ 10000 | 6 | CCOc1cc(F)c(Cn2nc(-c3ncc(OCC4(CO)COC4)c(Nc4ccncc4)n3)c3c2CCC3)c(F)c1 [Example 2-3-2, {3-[({2-[1-(4-ethoxy-2,6-difluoro-benzyl)-1,4,5,6-tetrahydrocyclopenta [c]pyrazol-3-yl]-4-(pyridin-4-ylamino)pyrimidin-5-yl}oxy)methyl]oxetan-3-yl}methanol] |
| 1000 | 20 | CCOc1cc(F)c(Cn2nc(-c3ncc(OCCN4CCCC4)c(Nc4ccncc4)n3)c3c2CCC3)c(F)c1 [Example 2-3-3, 2-[1-(4-ethoxy-2,6-difluoro-benzyl)-1,4,5,6-tetrahydrocyclopenta [c]pyrazol-3-yl]-N-(pyridin-4-yl)-5-[2-(pyrrolidin-1-yl)ethoxy] pyrimidin-4-amine] |
| ≥ 10000 | 40 | CCOC(=O)c1cnccc1Nc1nc(-c2nn(Cc3ccccc3F)c3c2CCC3)ncc1OCC1(CO)COC1 [Example 2-3-4, ethyl 4-[(2-[1-(2-fluoro-benzyl)-1,4,5,6-tetrahydrocyclopenta [c]pyrazol-3-yl]-5-{[3-(hydroxymethyl)oxetan-3-yl]methoxy}pyrimidin-4-yl)amino] nicotinate] |
| 4000 | 40 | N#Cc1cnccc1Nc1nc(-c2nn(Cc3ccccc3F)c3c2CCC3)ncc1OCC1(CO)COC1 [Example 2-3-5, 4-[(2-[1-(2-fluoro-benzyl)-1,4,5,6-tetrahydrocyclopenta [c]pyrazol-3-yl]-5-{[3-(hydroxymethyl)oxetan-3-yl]methoxy}pyrimidin-4-yl)amino] nicotinonitrile] |
| ≥ 10000 | 100 | CS(=O)(=O)CCCOc1cnc(-c2nn(Cc3ccccc3F)c3c2CCC3)nc1Nc1ccncc1C(N)=O [Example 2-3-9, 4-({2-[1-(2-fluoro-benzyl)-1,4,5,6-tetrahydrocyclopenta [c]pyrazol-3-yl]-5-[3-(methyl-sulfonyl)propoxy]pyrimidin-4-yl}amino) nicotinamide] |
| ≥ 10000 | 200 | CCOc1cc(F)c(Cn2nc(-c3ncc(O)c(N(CCN(C)C)c4ccncc4)n3)c3c2CCC3)c(F)c1 [Example 2-4-1, 4-{[2-(dimethylamino)ethyl](pyridin-4-yl)amino}-2-[1-(4-ethoxy-2,6-difluorobenzyl)-1,4,5,6-tetrahydrocyclopenta[c]pyrazol-3-yl]pyrimidin-5-ol] |
| ≥ 10000 | 900 | CCOc1cc(F)c(Cn2nc(-c3ncc(O)c(N(CCN4CCCC4)c4ccncc4)n3)c3c2CCC3)c(F)c1 [Example 2-4-2, 2-[1-(4-ethoxy-2,6-difluoro-benzyl)-1,4,5,6-tetrahydrocyclopenta [c]pyrazol-3-yl]-4-{pyridin-4-yl[2-(pyrrolidin-1-yl)ethyl]amino} pyrimidin-5-ol] |
| ≥ 10000 | 10 | COc1cnc(-c2nn(Cc3ccccc3F)c3c2CCC3)nc1Nc1ccncc1C(N)=O [Example 2-5-1, 4-({2-[1-(2-fluorobenzyl)-1,4,5,6-tetrahydrocyclopenta[c]pyrazol-3-yl]-5-methoxypyrimidin-4-yl}amino)nicotinamide] |
| ≥ 10000 | 30 | CCOC(=O)c1cnccc1Nc1nc(-c2nn(Cc3ccccc3F)c3c2CCC3)ncc1O [Example 2-8-1, ethyl 4-({2-[1-(2-fluorobenzyl)-1,4,5,6-tetrahydrocyclopenta[c]pyrazol-3-yl]-5-hydroxypyrimidin-4-yl}amino)nicotinate] |
| 50000 | 70 | NC(=O)c1cnccc1Nc1nc(-c2nn(Cc3ccccc3F)c3c2CCC3)ncc1OCCO [Example 2-10-1, 4-({2-[1-(2-fluorobenzyl)-1,4,5,6-tetrahydrocyclopenta[c]pyrazol-3-yl]-5-(2-hydroxyethoxyl)pyrimidin-4-yl}amino)nicotinamide] |
| ≥ 10000 | 2000 | NC(=O)c1cnccc1N(CCO)c1nc(-c2nn(Cc3ccccc3F)c3c2CCC3)ncc1OCCO [Example 2-10-2, 4-[{2-[1-(2-fluoro-benzyl)-1,4,5,6-tetrahydrocyclopenta [c]pyrazol-3-yl]-5-(2-hydroxy-ethoxy)pyrimidin-4-yl}(2-hydroxy-ethyl)amino] nicotinamide] |
| ≥ 10000 | 400 | N#Cc1cnccc1Nc1nc(-c2nn(Cc3ccccc3F)c3c2CCC3)ncc1OCCO [Example 2-11-1, 4-({2-[1-(2-fluorobenzyl)-1,4,5,6-tetrahydrocyclopenta[c]pyrazol-3-yl]-5-(2-hydroxyethoxyl)pyrimidin-4-yl}amino)nicotinonitrile] |
| 4000 | 4 | CCOc1cc(F)c(Cn2nc(-c3ncc(OCCO)c(Nc4ccncc4)n3)c3c2CCC3)c(F)c1 [Example 2-11-2, 2-({2-[1-(4-ethoxy-2,6-difluoro-benzyl)-1,4,5,6-tetrahydrocyclopenta [c]pyrazol-3-yl]-4-(pyridin-4-ylamino)pyrimidin-5-yl}oxy) ethanol] |
| ≥ 10000 | 30 | CS(=O)(=O)CCOc1cnc(-c2nn(Cc3ccccc3F)c3c2CCC3)nc1Nc1ccncc1C(N)=O [Example 2-13-1, 4-({2-[1-(2-fluorobenzyl)-1,4,5,6-tetrahydrocyclopenta[c]pyrazol-3-yl]-5-[2-(methylsulfonyl)ethoxy]pyrimidin-4-yl}amino)nicotinamide] |
